Assay [1] concerns AGS cells (KRAS G12D), phospho-ERK. Kind of assay: pERK In Cell Western (ICW) assay (Method B), AGS cells. The class given is cell-based. As to conditions: Homo sapiens. On the procedure: (§1) pERK ICW is a high throughput screening assay to evaluate the cellular potency of mutant KRAS small molecule inhibitors. KRAS mutant cell lines AGS and GP2D (KRAS^G12D) were purchased from ATCC and maintained respectively in RPMI and DMEM medium supplemented with 10% fetal bovine serum and Penicillin/Streptomycin.
(§2) Cells grown in exponential phase were trypsinized, resuspended in fresh media, and viable cells were counted using a cell counter with Trypan Blue (BioRad TC20). Cells were seeded into 384-well plate (Greiner 781091) at density of 5,000 cells/well for AGS and 10,000 cells/well for GP2D and allowed to grow overnight in a 37° C. CO2 incubator. The next day, compounds were dispensed into wells with a ½ log, 10-point serial dilution and top concentration of […] using Tecan D300e dispenser and incubated for 3 hours in a 37° C. CO2 incubator. Cells were then fixed with paraformaldehyde (Electron Microscopy Sciences, 15710, 4% final concentration) for 30 min, permeabilized with wash buffer (1×PBS+0.1% Triton X-100) for 30 min and blocked with Odyssey blocking buffer (Li—COR 927-70001) for 1 hour, all at room temperature (RT). Phospho-ERK antibody (CST 4370L) was diluted 1:500 in Odyssey blocking+0.2% Tween 20 and incubated with cells overnight at 4° C. The next day, plates were washed 5× with wash buffer, incubated with IRDye 800 CW, Goat anti-Rabbit secondary antibody (Li—COR 926-32211, 1:500) and DRAQ5 (CST 4084L, 1:5,000) diluted in Odyssey blocking+0.2% Tween 20 for 1 hour, washed 5×, and imaged on an Odyssey CLx imaging system.
(§3) For data analysis, signal intensities from 800 (phosphor-ERK) and 700 (DRAQ5) channels were extracted, and phospho-ERK signals were normalized to DRAQ5 signals for each well and percent of DMSO control values were computed. Data were then imported into Graphpad Prism to compute half-maximal inhibitory concentrations (IC50) using a 4-parameter variable slope model. Z-factor for each plate was computed from signals derived from wells treated with either DMSO or […] of Trametinib. AGS pERK ICW (Method B) IC50 (uM) values of selected compounds are depicted in Table 2 with compounds having a value 0.001 uM to 0.01 uM as ++++; >0.01 uM to 0.1 uM as +++; >0.1 uM to 1 uM as ++; 1 uM to 10 uM as + and >10 uM as NA.

In another assay the target is T1, KRAS G12D/RAF1 (Homo sapiens, UniProt P01116, G12D).
T1 construct: His6-MBP (N, cleaved yes); made in house; host or cells: E. coli
Kind of assay: Protein-protein interaction (PPI) HTRF assay KRAS G12D/RAF1. The class given is binding. In short, it runs like this:
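HTRF pairing of His-tagged RAF1 (52-131) plus Tb-cryptate donor with GppNHp-exchanged biotin-RAS (KRAS 1-169 wt/G12D/G12V, NRAS wt) plus streptavidin-d2 acceptor; compound sits 30 min with RAS first, then 1 h RT with RAF1. IC50 derived from 665/615 ratio, untagged RAF1 defining full inhibition.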
(In TR-FRET formats the signal depends on donor and acceptor labels being close together.)

Assay [2] relates to GP2D cells (KRAS G12D), phospho-ERK. Description: pERK In Cell Western (ICW) assay, GP2D cells. The class given is cell-based. As to conditions: Table 4, 3 hours. Here is the method: as §1, §2, §3
Setting [3] is: Table 4, pERK, 3 hours, read-out: ICW-AGS.

Read-outs that look alike come from different tables or passages of the source.

T1 sequence (P01116 with tags, fused parts or gaps isoform P01116-2 G12D): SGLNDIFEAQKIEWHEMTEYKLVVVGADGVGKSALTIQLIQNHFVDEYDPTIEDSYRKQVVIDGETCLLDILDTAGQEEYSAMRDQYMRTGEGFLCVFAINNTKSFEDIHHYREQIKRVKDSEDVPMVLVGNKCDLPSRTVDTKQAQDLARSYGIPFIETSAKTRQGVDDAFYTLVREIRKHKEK

With `CN(C)C(=O)c1nn2c(c1Cl)CN(c1nc(OC[C@@]34CCCN3C[C@H](F)C4)nc(N3CC4(CCc5sc(N)c(C#N)c54)C3)c1C#N)CCC2` [Compound 2, 5-[6-(2-amino-3-cyano-spiro[5,6-dihydrocyclopenta[b]thiophene-4,3′-azetidine]-1′-yl)-5-cyano-2-[[(2R,8S)-2-fluoro-1,2,3,5,6,7-hexahydropyrrolizin-8-yl]methoxy]pyrimidin-4-yl]-3-chloro-N,N-dimethyl-4,6,7,8-tetrahydropyrazolo[1,5-a][1,4]diazepine-2-carboxamide], the IC50 in assay [1] (Table 2, 3 hours, ICW, read-out: pERK-AGS (uM) Method B) is 0.01 to 0.1 µM; in assay [1] (setting [3]), 0.01 to 0.1 µM; against KRAS G12D/RAF1 (Table 2), 100 to 1000 nM; at KRAS G12D/RAF1 (Table 4), 100 to 1000 nM; in assay [2], 1 to 10 nM.

`CN(C)C(=O)c1nn2c(c1Cl)CN(c1nc(OC[C@@]34CCCN3C[C@H](F)C4)nc(N3CC4(CCCc5sc(N)c(C#N)c54)C3)c1C#N)CCC2` [Compound 3, 5-[6-(2-amino-3-cyano-spiro[6,7-dihydro-5H-benzothiophene-4,3′-azetidine]-1′-yl)-5-cyano-2-[[(2R,8S)-2-fluoro-1,2,3,5,6,7-hexahydropyrrolizin-8-yl]methoxy]pyrimidin-4-yl]-3-chloro-N,N-dimethyl-4,6,7,8-tetrahydropyrazolo[1,5-a][1,4]diazepine-2-carboxamide]: the IC50 in assay [1] (setting [3]) lay in the range of 0.01 to 0.1 µM; against KRAS G12D/RAF1 (Table 2) it was 10000 to 100000 nM; against KRAS G12D/RAF1 (Table 4), 1000 to 10000 nM; in assay [2] it was 1 to 10 nM.

Take `N#Cc1c(N2C[C@H]3CC[C@@H](C2)N3)nc(OCC2(CN3CCOCC3)CC2)nc1N1CC2(CCc3sc(N)c(C#N)c32)C1` [Compound 4, 2-amino-1′-[5-cyano-2-[[1-(morpholinomethyl)cyclopropyl]methoxy]-6-[(1R,5S)-3,8-diazabicyclo[3.2.1]octan-3-yl]pyrimidin-4-yl]spiro[5,6-dihydrocyclopenta[b]thiophene-4,3′-azetidine]-3-carbonitrile]: the figures for the IC50 (in assay [1] (setting [3]); at KRAS G12D/RAF1 (Table 4); in assay [2]) were 0.001 to 0.01 µM, < 100 nM and 1 to 10 nM, respectively.

`CN(C)C(=O)c1nn2c(c1Cl)CN(c1nc(OCC3(CN4CCOCC4)CC3)nc(N3CC4(CCc5sc(N)c(C#N)c54)C3)c1C#N)CCC2` [Compound 5, 5-[6-(2-amino-3-cyano-spiro[5,6-dihydrocyclopenta[b]thiophene-4,3′-azetidine]-1′-yl)-5-cyano-2-[[1-(morpholinomethyl)cyclopropyl]methoxy]pyrimidin-4-yl]-3-chloro-N,N-dimethyl-4,6,7,8-tetrahydropyrazolo[1,5-a][1,4]diazepine-2-carboxamide]: the IC50 in assay [1] (setting [3]) lay within 0.01 to 0.1 µM; against KRAS G12D/RAF1 (Table 4) it was 1000 to 10000 nM; in assay [2] it was 1 to 10 nM.

For the compound `N#Cc1c(N)sc2c1C1(CC2)CN(c2nc(OC[C@@]34CCCN3C[C@H](F)C4)nc(N3CCC[C@]4(C3)NC(=O)NC4=O)c2F)C1` [Compound 7, 2-amino-1′-[6-[(5R)-2,4-dioxo-1,3,9-triazaspiro[4.5]decan-9-yl]-5-fluoro-2-[[(2R,8S)-2-fluoro-1,2,3,5,6,7-hexahydropyrrolizin-8-yl]methoxy]pyrimidin-4-yl]spiro[5,6-dihydrocyclopenta[b]thiophene-4,3′-azetidine]-3-carbonitrile], the values for the IC50 (in assay [1] (setting [3]); against KRAS G12D/RAF1 (Table 4); in assay [2]) were 1 to 10 µM, 100 to 1000 nM and 100 to 1000 nM, respectively.

Turning to `CN(C)C(=O)c1cc2n(n1)CCCN(c1nc(OC[C@@]34CCCN3C[C@H](F)C4)nc(N3CC4(CCc5sc(N)c(C#N)c54)C3)c1C#N)C2` [Compound 8, 5-[6-(2-amino-3-cyano-spiro[5,6-dihydrocyclopenta[b]thiophene-4,3′-azetidine]-1′-yl)-5-cyano-2-[[(2R,8S)-2-fluoro-1,2,3,5,6,7-hexahydropyrrolizin-8-yl]methoxy]pyrimidin-4-yl]-N,N-dimethyl-4,6,7,8-tetrahydropyrazolo[1,5-a][1,4]diazepine-2-carboxamide], the IC50 in assay [1] (setting [3]) lay within 0.01 to 0.1 µM; on KRAS G12D/RAF1 (Table 4), 1000 to 10000 nM; in assay [2] it was 1 to 10 nM.

As to `CN(C)C(=O)c1nn2c(c1Cl)CN(c1nc(OC[C@@]34CCCN3C[C@H](F)C4)nc(N3CC4(CCc5sc(N)c(C#N)c54)C3)c1F)CCC2` [Compound 9, 5-[6-(2-amino-3-cyano-spiro[5,6-dihydrocyclopenta[b]thiophene-4,3′-azetidine]-1′-yl)-5-fluoro-2-[[(2R,8S)-2-fluoro-1,2,3,5,6,7-hexahydropyrrolizin-8-yl]methoxy]pyrimidin-4-yl]-3-chloro-N,N-dimethyl-4,6,7,8-tetrahydropyrazolo[1,5-a][1,4]diazepine-2-carboxamide], the IC50 in assay [1] (setting [3]) lay within 0.1 to 1 µM; at KRAS G12D/RAF1 (Table 4) it was 1000 to 10000 nM; in assay [2], 10 to 100 nM.

As for `CN(C)C(=O)c1nn2c(c1Cl)CN(c1nc(OC[C@@]34CCCN3C[C@H](F)C4)nc(N3CC4(CCCCc5sc(N)c(C#N)c54)C3)c1C#N)CCC2` [Compound 10, 5-[6-(2-amino-3-cyano-spiro[5,6,7,8-tetrahydrocyclohepta[b]thiophene-4,3′-azetidine]-1′-yl)-5-cyano-2-[[(2R,8S)-2-fluoro-1,2,3,5,6,7-hexahydropyrrolizin-8-yl]methoxy]pyrimidin-4-yl]-3-chloro-N,N-dimethyl-4,6,7,8-tetrahydropyrazolo[1,5-a][1,4]diazepine-2-carboxamide], the IC50 in assay [1] (setting [3]) lay in the range of 0.01 to 0.1 µM; at KRAS G12D/RAF1 (Table 4), 1000 to 10000 nM; in assay [2] it was 10 to 100 nM.

`N#Cc1c(N2C[C@H]3CC[C@@H](C2)N3)nc(OCC2(c3ccn[nH]3)CC2)nc1N1CC2(CCc3sc(N)c(C#N)c32)C1` [Compound 98, 2-amino-1′-[5-cyano-6-[(1R,5S)-3,8-diazabicyclo[3.2.1]octan-3-yl]-2-[[1-(1H-pyrazol-5-yl)cyclopropyl]methoxy]pyrimidin-4-yl]spiro[5,6-dihydrocyclopenta[b]thiophene-4,3′-azetidine]-3-carbonitrile]: the IC50 (at KRAS G12D/RAF1 (Table 4); in assay [2]) was 1000 to 10000 nM each time.

For the compound `N#Cc1c(N2C[C@H]3CC[C@@H](C2)N3)nc(OC[C@@]23CCCN2C[C@H](F)C3)nc1N1CC2(C1)c1c(sc(N)c1C#N)CC1CC12` (stereo partly drawn) [Compound 99, 2-amino-1′-[5-cyano-6-[(1R,5S)-3,8-diazabicyclo[3.2.1]octan-3-yl]-2-[[(2R,8S)-2-fluoro-1,2,3,5,6,7-hexahydropyrrolizin-8-yl]methoxy]pyrimidin-4-yl]spiro[4a,5,5a,6-tetrahydrocyclopropa[f]benzothiophene-4,3′-azetidine]-3-carbonitrile], the IC50 was in the range of 100 to 1000 nM against KRAS G12D/RAF1 (Table 4) and 1 to 10 nM in assay [2].

On to `N#Cc1c(N2C[C@H]3CC[C@@H](C2)N3)nc(OCC2(CN3CCOCC3)CC2)nc1N1CC2(C1)SCc1sc(N)c(C#N)c12` [Compound 100, 2-amino-1′-[5-cyano-6-[(1R,5S)-3,8-diazabicyclo[3.2.1]octan-3-yl]-2-[[1-(morpholinomethyl)cyclopropyl]methoxy]pyrimidin-4-yl]spiro[6H-thieno[2,3-c]thiophene-4,3′-azetidine]-3-carbonitrile], for which the IC50 at KRAS G12D/RAF1 (Table 4) was < 100 nM; in assay [2] it was 1 to 10 nM.

With `N#Cc1c(N2C[C@H]3CC[C@@H](C2)N3)nc(OCC2(CN3CCOCC3)CC2)nc1N1CC2(C1)c1c(sc(N)c1C#N)CC2F` (stereo partly drawn) [Compound 101, 2-amino-1′-[5-cyano-6-[(1R,5S)-3,8-diazabicyclo[3.2.1]octan-3-yl]-2-[[1-(morpholinomethyl)cyclopropyl]methoxy]pyrimidin-4-yl]-5-fluoro-spiro[5,6-dihydrocyclopenta[b]thiophene-4,3′-azetidine]-3-carbonitrile], the IC50 at KRAS G12D/RAF1 (Table 4) is 100 to 1000 nM; in assay [2] it was 1 to 10 nM.

On to `Cc1n[nH]nc1COc1nc(N2C[C@H]3CC[C@@H](C2)N3)c(C#N)c(N2CC3(CCc4sc(N)c(C#N)c43)C2)n1` [Compound 108], for which the IC50 at KRAS G12D/RAF1 (Table 4) lay within 10000 to 100000 nM; in assay [2], 1000 to 10000 nM.

Source of the values: patent publication US12145947B2, “Pyrimidine based modulators and uses thereof” (Quanta Therapeutics, Inc., priority 2022, dated 2024).
